Measurements: US7261906B2, “Anti-cancer therapy agent of arsenic hexoxide (As4O6) of a natural chemical substance and its pharmaceutical composition” (priority 1998, dated 2007)

Test: Acute toxicity, single oral administration
Type: in vivo, Rats (Sprague Dawley strain)
Conditions: for Mortality, Days after treatment 1 / Mortality, Days after treatment 2 / Mortality, Days after treatment 3 / Mortality, Days after treatment 4 / Mortality, Days after treatment 5 / Mortality, Days after treatment 6 / Mortality, Days after treatment 7 / Mortality, Days after treatment 8 / Mortality, Days after treatment 9 / Mortality, Days after treatment 10 / Mortality, Days after treatment 11 / Mortality, Days after treatment 12 / Mortality, Days after treatment 13 / Mortality, Days after treatment 14 / Mortality, Hours after treatment 1 / Mortality, Hours after treatment 2 / Mortality, Hours after treatment 3 / Mortality, Hours after treatment 4 / Mortality, Hours after treatment 5 / Mortality, Hours after treatment 6 / Final mortality / Final mortality (dead/total): Female; for Final mortality / Final mortality (dead/total): 14 days; for LD50 (50% Lethal Dose): oral administration
Description: The acute toxicity of oral administration of HD-2 was evaluated according to toxicity assessment criteria described in Article 96-8 of Notice on Food and Drug Safety (Apr. 16, 1994). Rats (Sprague Dawley strain) were used for animal experiments. Dosage of a single, oral administration ranged from 0.4 to 1.25 g/kg body weight in male rats and 0.4 to […] body weight in female rats. General conditions of the animals, toxic symptoms, and mortality were measured every hour for the initial 6 hours following the single administration and once a day afterwards for 14 days. Body weights were measured before starting the study, 7 days after the administration, and at autopsy. Expired rats were studied to find the cause of death at autopsy. […] Some rats manifesting these clinical symptoms expired, but others recovered to normal condition within 2 to 3 days of clinical symptoms.

O1[As]2O[As]3O[As]1O[As](O2)O3 [HD-2, arsenic hexoxide (As4O6)]
Mortality, Days after treatment 1 (0.4 g/kg B.W. oral): 0
Mortality, Days after treatment 2 (0.4 g/kg B.W. oral): 0
Mortality, Days after treatment 3 (0.4 g/kg B.W. oral): 0
Mortality, Days after treatment 4 (0.4 g/kg B.W. oral): 0
Mortality, Days after treatment 5 (0.4 g/kg B.W. oral): 0
Mortality, Days after treatment 6 (0.4 g/kg B.W. oral): 0
Mortality, Days after treatment 7 (0.4 g/kg B.W. oral): 0
Mortality, Days after treatment 8 (0.4 g/kg B.W. oral): 0
Mortality, Days after treatment 9 (0.4 g/kg B.W. oral): 0
Mortality, Days after treatment 10 (0.4 g/kg B.W. oral): 0
Mortality, Days after treatment 11 (0.4 g/kg B.W. oral): 0
Mortality, Days after treatment 12 (0.4 g/kg B.W. oral): 0
Mortality, Days after treatment 13 (0.4 g/kg B.W. oral): 0
Mortality, Days after treatment 14 (0.4 g/kg B.W. oral): 0
Mortality, Hours after treatment 1 (0.4 g/kg B.W. oral): 0
Mortality, Hours after treatment 2 (0.4 g/kg B.W. oral): 0
Mortality, Hours after treatment 3 (0.4 g/kg B.W. oral): 0
Mortality, Hours after treatment 4 (0.4 g/kg B.W. oral): 0
Mortality, Hours after treatment 5 (0.4 g/kg B.W. oral): 0
Mortality, Hours after treatment 6 (0.4 g/kg B.W. oral): 0
Final mortality (0.4 g/kg B.W. oral): 0%
Final mortality (dead/total) (0.4 g/kg B.W. oral): 0/5
Mortality, Days after treatment 1 (0.5 g/kg B.W. oral): 0
Mortality, Days after treatment 2 (0.5 g/kg B.W. oral): 0
Mortality, Days after treatment 3 (0.5 g/kg B.W. oral): 0
Mortality, Days after treatment 4 (0.5 g/kg B.W. oral): 0
Mortality, Days after treatment 5 (0.5 g/kg B.W. oral): 0
Mortality, Days after treatment 6 (0.5 g/kg B.W. oral): 0
Mortality, Days after treatment 7 (0.5 g/kg B.W. oral): 0
Mortality, Days after treatment 8 (0.5 g/kg B.W. oral): 0
Mortality, Days after treatment 9 (0.5 g/kg B.W. oral): 0
Mortality, Days after treatment 10 (0.5 g/kg B.W. oral): 0
Mortality, Days after treatment 11 (0.5 g/kg B.W. oral): 0
Mortality, Days after treatment 12 (0.5 g/kg B.W. oral): 0
Mortality, Days after treatment 13 (0.5 g/kg B.W. oral): 0
Mortality, Days after treatment 14 (0.5 g/kg B.W. oral): 0
Mortality, Hours after treatment 1 (0.5 g/kg B.W. oral): 0
Mortality, Hours after treatment 2 (0.5 g/kg B.W. oral): 0
Mortality, Hours after treatment 3 (0.5 g/kg B.W. oral): 0
Mortality, Hours after treatment 4 (0.5 g/kg B.W. oral): 0
Mortality, Hours after treatment 5 (0.5 g/kg B.W. oral): 0
Mortality, Hours after treatment 6 (0.5 g/kg B.W. oral): 0
Final mortality (0.5 g/kg B.W. oral): 0%
Final mortality (dead/total) (0.5 g/kg B.W. oral): 0/5
Mortality, Days after treatment 1 (0.58 g/kg B.W. oral): 1
Mortality, Days after treatment 2 (0.58 g/kg B.W. oral): 1
Mortality, Days after treatment 3 (0.58 g/kg B.W. oral): 0
Mortality, Days after treatment 4 (0.58 g/kg B.W. oral): 0
Mortality, Days after treatment 5 (0.58 g/kg B.W. oral): 0
Mortality, Days after treatment 6 (0.58 g/kg B.W. oral): 0
Mortality, Days after treatment 7 (0.58 g/kg B.W. oral): 0
Mortality, Days after treatment 8 (0.58 g/kg B.W. oral): 0
Mortality, Days after treatment 9 (0.58 g/kg B.W. oral): 0
Mortality, Days after treatment 10 (0.58 g/kg B.W. oral): 0
Mortality, Days after treatment 11 (0.58 g/kg B.W. oral): 0
Mortality, Days after treatment 12 (0.58 g/kg B.W. oral): 0
Mortality, Days after treatment 13 (0.58 g/kg B.W. oral): 0
Mortality, Days after treatment 14 (0.58 g/kg B.W. oral): 0
Mortality, Hours after treatment 1 (0.58 g/kg B.W. oral): 0
Mortality, Hours after treatment 2 (0.58 g/kg B.W. oral): 0
Mortality, Hours after treatment 3 (0.58 g/kg B.W. oral): 0
Mortality, Hours after treatment 4 (0.58 g/kg B.W. oral): 0
Mortality, Hours after treatment 5 (0.58 g/kg B.W. oral): 0
Mortality, Hours after treatment 6 (0.58 g/kg B.W. oral): 0
Final mortality (0.58 g/kg B.W. oral): 40%
Final mortality (dead/total) (0.58 g/kg B.W. oral): 2/5
Mortality, Days after treatment 1 (0.62 g/kg B.W. oral): 3
Mortality, Days after treatment 2 (0.62 g/kg B.W. oral): 1
Mortality, Days after treatment 3 (0.62 g/kg B.W. oral): 0
Mortality, Days after treatment 4 (0.62 g/kg B.W. oral): 0
Mortality, Days after treatment 5 (0.62 g/kg B.W. oral): 0
Mortality, Days after treatment 6 (0.62 g/kg B.W. oral): 0
Mortality, Days after treatment 7 (0.62 g/kg B.W. oral): 0
Mortality, Days after treatment 8 (0.62 g/kg B.W. oral): 0
Mortality, Days after treatment 9 (0.62 g/kg B.W. oral): 0
Mortality, Days after treatment 10 (0.62 g/kg B.W. oral): 0
Mortality, Days after treatment 11 (0.62 g/kg B.W. oral): 0
Mortality, Days after treatment 12 (0.62 g/kg B.W. oral): 0
Mortality, Days after treatment 13 (0.62 g/kg B.W. oral): 0
Mortality, Days after treatment 14 (0.62 g/kg B.W. oral): 0
Mortality, Hours after treatment 1 (0.62 g/kg B.W. oral): 0
Mortality, Hours after treatment 2 (0.62 g/kg B.W. oral): 0
Mortality, Hours after treatment 3 (0.62 g/kg B.W. oral): 0
Mortality, Hours after treatment 4 (0.62 g/kg B.W. oral): 0
Mortality, Hours after treatment 5 (0.62 g/kg B.W. oral): 0
Mortality, Hours after treatment 6 (0.62 g/kg B.W. oral): 0
Final mortality (0.62 g/kg B.W. oral): 80%
Final mortality (dead/total) (0.62 g/kg B.W. oral): 4/5
Mortality, Days after treatment 1 (0.625 g/kg B.W. oral): 1
Mortality, Days after treatment 2 (0.625 g/kg B.W. oral): 0
Mortality, Days after treatment 3 (0.625 g/kg B.W. oral): 0
Mortality, Days after treatment 4 (0.625 g/kg B.W. oral): 0
Mortality, Days after treatment 5 (0.625 g/kg B.W. oral): 0
Mortality, Days after treatment 6 (0.625 g/kg B.W. oral): 0
Mortality, Days after treatment 7 (0.625 g/kg B.W. oral): 0
Mortality, Days after treatment 8 (0.625 g/kg B.W. oral): 0
Mortality, Days after treatment 9 (0.625 g/kg B.W. oral): 0
Mortality, Days after treatment 10 (0.625 g/kg B.W. oral): 0
Mortality, Days after treatment 11 (0.625 g/kg B.W. oral): 0
Mortality, Days after treatment 12 (0.625 g/kg B.W. oral): 0
Mortality, Days after treatment 13 (0.625 g/kg B.W. oral): 0
Mortality, Days after treatment 14 (0.625 g/kg B.W. oral): 0
Mortality, Hours after treatment 1 (0.625 g/kg B.W. oral): 0
Mortality, Hours after treatment 2 (0.625 g/kg B.W. oral): 0
Mortality, Hours after treatment 3 (0.625 g/kg B.W. oral): 0
Mortality, Hours after treatment 4 (0.625 g/kg B.W. oral): 0
Mortality, Hours after treatment 5 (0.625 g/kg B.W. oral): 0
Mortality, Hours after treatment 6 (0.625 g/kg B.W. oral): 0
Final mortality (0.625 g/kg B.W. oral): 100%
Final mortality (dead/total) (0.625 g/kg B.W. oral): 5/5
Changes in weight vs control group (all subgroups of different dosages): did not show any significant difference
LD50 (50% Lethal Dose) (female rats): 0.58 g/kg body weight
LD50 (50% Lethal Dose) (male rats): 0.81 g/kg body weight
